Measurements taken from patent US20250230193A1, “CYCLIC COMPOUND HAVING SELECTIVE KRAS INHIBITORY EFFECT ON HRAS AND NRAS” (CHUGAI SEIYAKU KABUSHIKI KAISHA, priority 2022, published 2025).

Key:
[1] = target: GDP-bound NRAS wild-type protein (Homo sapiens, UniProt P01111); test: Binding to NRAS by surface plasmon resonance (SPR), Single Cycle Kinetics; conditions: KD ratio NRAS/KRAS, SPR, GDP-bound wild-type proteins
[2] = target: GDP-bound HRAS wild-type protein (Homo sapiens, UniProt P01112); test: Binding to HRAS by surface plasmon resonance (SPR), Single Cycle Kinetics; conditions: KD ratio HRAS/KRAS, SPR, GDP-bound wild-type proteins
GDP-bound HRAS wild-type protein, sequence (P01112 whole entry): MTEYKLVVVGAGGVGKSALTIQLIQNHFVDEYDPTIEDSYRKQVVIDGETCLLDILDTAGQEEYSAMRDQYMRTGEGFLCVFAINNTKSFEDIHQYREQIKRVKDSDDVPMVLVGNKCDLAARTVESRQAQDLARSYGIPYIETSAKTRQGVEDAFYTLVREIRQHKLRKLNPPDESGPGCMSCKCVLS

GDP-bound NRAS wild-type protein, sequence (P01111 whole entry): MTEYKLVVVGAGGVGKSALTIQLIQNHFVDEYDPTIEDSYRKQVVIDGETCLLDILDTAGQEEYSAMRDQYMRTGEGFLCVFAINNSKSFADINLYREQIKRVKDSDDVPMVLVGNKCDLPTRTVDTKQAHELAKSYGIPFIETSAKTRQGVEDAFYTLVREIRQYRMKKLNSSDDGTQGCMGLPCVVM

Q: Which results are given for `CCC[C@H]1C(=O)N[C@@H]([C@@H](C)CC)C(=O)N(C)CC(=O)N(C)[C@H]2C/C=C\CCN(C2=O)[C@@H](Cc2ccc(C(F)(F)F)cc2)C(=O)N(C)CC(=O)N[C@@H](CCc2ccc(C(F)(F)F)c(Cl)c2)C(=O)N2C[C@H](OCC)C[C@H]2C(=O)NC2(CC(C)(C)C2)C(=O)N(C)[C@@H](CC(C)C)C(=O)N(C)[C@H](C(=O)N(C)C)CC(=O)N1C` [PP2977]?
A: NRAS/KRAS (ratio of KD value with respect to GDP-bound NRAS wild-type protein to KD value with respect to KRAS) [1]: A (a compound having 10 or more and less than 20 is denoted as A); HRAS/KRAS (ratio of KD value with respect to GDP-bound HRAS wild-type protein to KD value with respect to KRAS) [2]: A (a compound having 10 or more and less than 20 is denoted as A)

Q: `C#CC[C@H]1C(=O)N[C@@H]([C@@H](C)CC)C(=O)N(C)CC(=O)N(C)[C@H]2C/C=C\CCN(C2=O)[C@@H](Cc2ccc(C)cc2)C(=O)N(C)CC(=O)N[C@@H](CCc2cc(F)c(C(F)(F)F)c(F)c2)C(=O)N2CC3(CC3)C[C@H]2C(=O)NC2(CC(C)(C)C2)C(=O)N(C)[C@@H](C2CCCC2)C(=O)N(C)[C@H](C(=O)N(C)C)CC(=O)N1C` [PP2978] was tested. Which “NRAS/KRAS (ratio of KD value with respect to GDP-bound NRAS wild-type protein to KD value with respect to KRAS)” value [1] did it give?
A: A (a compound having 10 or more and less than 20 is denoted as A)

Q: What about the “HRAS/KRAS (ratio of KD value with respect to GDP-bound HRAS wild-type protein to KD value with respect to KRAS)” value [2] of the same compound?
A: A (a compound having 10 or more and less than 20 is denoted as A)

Q: How did the “NRAS/KRAS (ratio of KD value with respect to GDP-bound NRAS wild-type protein to KD value with respect to KRAS)” value [1] turn out when `CCC[C@H]1C(=O)N[C@@H]([C@@H](C)CC)C(=O)N(C)CC(=O)N(C)[C@H]2C/C=C\CCN(C2=O)[C@@H](Cc2ccc(C(F)(F)F)cc2)C(=O)N(C)CC(=O)N[C@@H](CCc2ccc(C(F)(F)F)c(Cl)c2)C(=O)N2CC3(CC3)C[C@H]2C(=O)NC2(CC(C)(C)C2)C(=O)N(C)[C@@H](CC(C)(C)C)C(=O)N(C)[C@H](C(=O)N(C)C)CC(=O)N1C` [PP2979] was run?
A: A (a compound having 10 or more and less than 20 is denoted as A)

Q: What about the “HRAS/KRAS (ratio of KD value with respect to GDP-bound HRAS wild-type protein to KD value with respect to KRAS)” value [2] of the same compound?
A: B (a compound having 3 or more and less than 10 is denoted as B)

Q: With `C#CC[C@H]1C(=O)N[C@@H]([C@@H](C)CC)C(=O)N(C)CC(=O)N(C)[C@H]2C/C=C\CCN(C2=O)[C@@H](Cc2ccc(C(F)(F)F)cc2)C(=O)N(C)CC(=O)N[C@@H](CCc2ccc(C(F)(F)F)c(Cl)c2)C(=O)N2CC3(CC3)C[C@H]2C(=O)NC2(CC(C)(C)C2)C(=O)N(C)[C@@H](C2CCCC2)C(=O)N(C)[C@H](C(=O)N(C)C)CC(=O)N1C` [PP2980] as the compound, how does the “NRAS/KRAS (ratio of KD value with respect to GDP-bound NRAS wild-type protein to KD value with respect to KRAS)” value [1] read?
A: A (a compound having 10 or more and less than 20 is denoted as A)

Q: What about the “HRAS/KRAS (ratio of KD value with respect to GDP-bound HRAS wild-type protein to KD value with respect to KRAS)” value [2] of the same compound?
A: B (a compound having 3 or more and less than 10 is denoted as B)

Q: Which results are given for `CCC[C@H]1C(=O)N[C@@H](C2CCCC2)C(=O)N(C)CC(=O)N(C)[C@H]2C/C=C\CCN(C2=O)[C@@H](Cc2ccc(C(F)(F)F)cc2)C(=O)N(C)CC(=O)N[C@@H](CCc2ccc(C(F)(F)F)c(Cl)c2)C(=O)N2CC3(CC3)C[C@H]2C(=O)NC2(CC(C)(C)C2)C(=O)N(C)[C@@H](CC(C)(C)C)C(=O)N(C)[C@H](C(=O)N(C)C)CC(=O)N1C` [PP2981]?
A: NRAS/KRAS (ratio of KD value with respect to GDP-bound NRAS wild-type protein to KD value with respect to KRAS) [1]: AA (a compound having 20 or more is denoted as AA); HRAS/KRAS (ratio of KD value with respect to GDP-bound HRAS wild-type protein to KD value with respect to KRAS) [2]: A (a compound having 10 or more and less than 20 is denoted as A)

Q: With `C#CC[C@H]1C(=O)N[C@@H]([C@@H](C)CC)C(=O)N(C)CC(=O)N(C)[C@H]2C/C=C\CCN(C2=O)[C@@H](Cc2ccc(C)cc2)C(=O)N(C)CC(=O)N[C@@H](CCc2ccc(C(F)(F)F)c(Cl)c2)C(=O)N2CC3(CC3)C[C@H]2C(=O)NC2(CC(C)(C)C2)C(=O)N(C)[C@@H](C2CCCC2)C(=O)N(C)[C@H](C(=O)N(C)C)CC(=O)N1C` [PP2982] as the compound, how does the “NRAS/KRAS (ratio of KD value with respect to GDP-bound NRAS wild-type protein to KD value with respect to KRAS)” value [1] read?
A: A (a compound having 10 or more and less than 20 is denoted as A)

Q: What about the “HRAS/KRAS (ratio of KD value with respect to GDP-bound HRAS wild-type protein to KD value with respect to KRAS)” value [2] of the same compound?
A: A (a compound having 10 or more and less than 20 is denoted as A)

Q: Which “NRAS/KRAS (ratio of KD value with respect to GDP-bound NRAS wild-type protein to KD value with respect to KRAS)” value [1] does the source give for `CCC[C@H]1C(=O)N[C@@H]([C@@H](C)CC)C(=O)N(C)CC(=O)N(C)[C@H]2C/C=C\CCN(C2=O)[C@@H](Cc2ccc(C(F)(F)F)cc2)C(=O)N(C)CC(=O)N[C@@H](CCc2ccc(C(F)(F)F)c(Cl)c2)C(=O)N2CC3(CC3)C[C@H]2C(=O)NC2(CC(C)(C)C2)C(=O)N(C)[C@@H]([C@@H](C)CC)C(=O)N(C)[C@H](C(=O)N(C)C)CC(=O)N1C` [PP2983] here?
A: AA (a compound having 20 or more is denoted as AA)

Q: And the “HRAS/KRAS (ratio of KD value with respect to GDP-bound HRAS wild-type protein to KD value with respect to KRAS)” value [2]?
A: A (a compound having 10 or more and less than 20 is denoted as A)

Q: Which “NRAS/KRAS (ratio of KD value with respect to GDP-bound NRAS wild-type protein to KD value with respect to KRAS)” value [1] does the source give for `CCC[C@H]1C(=O)N[C@@H](C2CCCC2)C(=O)N(C)CC(=O)N(C)[C@H]2C/C=C\CCN(C2=O)[C@@H](Cc2ccc(C(F)(F)F)cc2)C(=O)N(C)CC(=O)N[C@@H](CCc2ccc(C(F)(F)F)c(Cl)c2)C(=O)N2C[C@H](OCC)C[C@H]2C(=O)NC2(CC(C)(C)C2)C(=O)N(C)[C@@H](C2CCCC2)C(=O)N(C)[C@H](C(=O)N(C)C)CC(=O)N1C` [PP2984] here?
A: A (a compound having 10 or more and less than 20 is denoted as A)

Q: And the “HRAS/KRAS (ratio of KD value with respect to GDP-bound HRAS wild-type protein to KD value with respect to KRAS)” value [2]?
A: B (a compound having 3 or more and less than 10 is denoted as B)
